Results on 4 compounds are retold here after publication PMC6893557, “Discovery of Non-peptide Small Molecule Allosteric Modulators of the Src-family Kinase, Hck” (Frontiers in Chemistry, 2019).

One assay deals with T1, Hck U32L protein (Homo sapiens, UniProt P08631).
T1 construct: including the N-terminal unique region, followed by the SH3 and SH2 domains, and the SH2-kinase linker; made in house; host or cells: E. coli
Description: Fluorescence polarization (FP) assay: displacement of VSL12 probe peptide from Hck-U32L. It is filed as binding. The settings on record: IC50, inhibition of VSL12 peptide FP signal, Hck-U32L plus fluorescent VSL12 probe; two independent determinations ± S.E., each data point in triplicate. As to the method:
For the FP assay, the peptide was labeled with 6-carboxyfluorescein at its N-terminus. […] Molecular weight and purity of all peptides were verified by mass spectrometry. Stock solutions (10 mM) were prepared in a 1:1 mixture of DMSO and FP assay buffer (20 mM Tris-HCl, pH 8.3) for the labeled peptide and FP assay buffer for the unlabeled peptide. Stock solutions were stored at −20°C.
FP assays were performed in low-volume black 384-well plates with a non-binding surface (Corning #3676). Peptides and proteins were added to each well in FP assay buffer for a final assay volume of 20 μL and mixed by shaking for 5 min at room temperature. […] Raw fluorescence intensity was also read at the same wavelengths for each assay.
Screening libraries were purchased from ChemDiv (10,000 non-peptide peptidomimetic library) and ChemBridge (50,000 compound diversity library). Each library compound was screened at 50 μM and a final DMSO concentration of 1%. […] Each plate contained 32 wells of the Hck U32L protein plus probe peptide and DMSO as positive controls, and 32 wells of mutant Hck U32L-W118A protein plus probe peptide and DMSO as negative controls. Results for each compound test well were ranked by z score analysis according to the formula: z = (sample FP—mean FPsamples)/standard deviationsamples (Shun et al., [2011]). Potential hit compounds, defined as those that inhibited the FP signal by at least 30% and/or with z scores < −3.0, were then retested in quadruplicate using the FP assay under screening assay conditions.
The target protein for HTS consisted of the entire regulatory region of the p59 form of human Hck, including the N-terminal unique region, followed by the SH3 and SH2 domains, and the SH2-kinase linker (referred to hereafter as the Hck “U32L” protein). […] The principle of the assay is illustrated in Figure 2A. Binding of the probe peptide to the SH3 domain in the target protein slows its rotation, resulting in an increase in the FP signal. Library compounds that interfere with probe binding or stabilize SH3-linker interaction reduce the FP signal, and score as hits.

In another assay the target is T2, Hck SH32-L (Homo sapiens, UniProt P08631).
T2 construct: an SH3-SH2-linker protein lacking the N-terminal unique domain; made in house; host or cells: E. coli
T2 sequence (P08631 72-256 limits assumed): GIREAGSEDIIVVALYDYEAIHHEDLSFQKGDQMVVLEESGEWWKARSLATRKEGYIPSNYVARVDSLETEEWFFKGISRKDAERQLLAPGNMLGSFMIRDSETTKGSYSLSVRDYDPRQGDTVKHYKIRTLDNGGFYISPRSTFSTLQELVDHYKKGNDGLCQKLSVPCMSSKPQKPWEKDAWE
The assay is described as follows: SPR binding, Hck SH3-SH2-linker protein. The settings on record: for Kd: kinetic KD, 1:1 Langmuir model, ± S.E., NI = no interaction, read-out: KD, Hck proteins SH32-L. In general terms: Surface plasmon resonance follows binding to a sensor surface in real time, without labels.

A further assay has as its target T3, Hck U-SH32-L (Hck-U32L) (Homo sapiens, UniProt P08631).
T3 construct: including the N-terminal unique region, followed by the SH3 and SH2 domains, and the SH2-kinase linker; made in house; host or cells: E. coli
The assay is described as follows: SPR binding, Hck unique-SH3-SH2-linker protein. The settings on record: kinetic KD, 1:1 Langmuir model, ± S.E., NI = no interaction, read-out: KD, Hck proteins U-SH32-L.

Another assay has as its target T4, Hck-YEEI (Homo sapiens, UniProt P08631, Q523E/Q524E/Q525I).
T4 construct: a near-full-length form of Hck consisting of the SH3, SH2 and kinase domains plus the tyrosine-phosphorylated tail; made in house; host or cells: Sf9 insect cells
The assay is described as follows: SPR binding, near-full-length Hck. The settings on record: kinetic KD, 1:1 Langmuir model, ± S.E., NI = no interaction, read-out: KD, Hck proteins Hck-YEEI.

The target in a further assay is T5, Fgr SH32 (Homo sapiens, UniProt P09769).
T5 construct: including a dual SH3-SH2 domain protein; made in house; host or cells: E. coli
T5 sequence (P09769 77-241 limits assumed): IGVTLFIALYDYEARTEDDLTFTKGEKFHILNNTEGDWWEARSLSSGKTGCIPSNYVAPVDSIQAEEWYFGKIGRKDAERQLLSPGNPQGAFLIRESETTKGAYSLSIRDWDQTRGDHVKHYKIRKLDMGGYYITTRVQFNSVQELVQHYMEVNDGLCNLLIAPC
The assay is described as follows: SPR binding, Fgr dual SH3-SH2 domain protein. The settings on record: kinetic KD, 1:1 Langmuir model, ± S.E., NI = no interaction; for Kd: read-out: KD, Fgr proteins SH32.

Another assay concerns the target T6, Fgr U-SH32-L (Homo sapiens, UniProt P09769).
T6 construct: the complete regulatory region, consisting of the unique, SH3, and SH2 domains plus the SH2-kinase linker (U32L protein); made in house; host or cells: E. coli
Description: SPR binding, Fgr unique-SH3-SH2-linker protein. The settings on record: kinetic KD, 1:1 Langmuir model, ± S.E., NI = no interaction; for Kd: read-out: KD, Fgr proteins U-SH32-L.

In the next assay the target is T7, Fgr-YEEI (Homo sapiens, UniProt P09769, G526I/P525E/Q524E).
T7 construct: near-full-length Fgr, lacking only the unique domain and encoding the same modified C-terminal tail as near-full-length Hck (Fgr-YEEI); made in house; host or cells: Sf9 insect cells
T7 sequence (P09769 77-526 Q524E/P525E/G526I): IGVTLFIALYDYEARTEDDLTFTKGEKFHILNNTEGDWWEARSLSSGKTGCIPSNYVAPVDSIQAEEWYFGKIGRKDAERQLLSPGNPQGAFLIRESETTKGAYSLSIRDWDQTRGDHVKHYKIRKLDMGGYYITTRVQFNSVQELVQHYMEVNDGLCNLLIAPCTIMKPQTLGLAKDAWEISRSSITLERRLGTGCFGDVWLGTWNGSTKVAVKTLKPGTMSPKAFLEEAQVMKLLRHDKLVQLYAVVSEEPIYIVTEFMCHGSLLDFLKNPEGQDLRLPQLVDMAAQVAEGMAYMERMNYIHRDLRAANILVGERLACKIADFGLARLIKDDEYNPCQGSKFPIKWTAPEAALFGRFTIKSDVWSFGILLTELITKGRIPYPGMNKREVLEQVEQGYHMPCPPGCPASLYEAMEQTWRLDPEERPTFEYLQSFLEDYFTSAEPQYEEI
Description: SPR binding, near-full-length Fgr. The settings on record: kinetic KD, 1:1 Langmuir model, ± S.E., NI = no interaction; for Kd: read-out: KD, Fgr proteins Fgr-YEEI.

Several values for one entry are separate records, joined by “and”; a condition that tells them apart may be missing. Equal values may be shown once.

T4 sequence (P08631 78-526 Q523E/Q524E/Q525I limits assumed): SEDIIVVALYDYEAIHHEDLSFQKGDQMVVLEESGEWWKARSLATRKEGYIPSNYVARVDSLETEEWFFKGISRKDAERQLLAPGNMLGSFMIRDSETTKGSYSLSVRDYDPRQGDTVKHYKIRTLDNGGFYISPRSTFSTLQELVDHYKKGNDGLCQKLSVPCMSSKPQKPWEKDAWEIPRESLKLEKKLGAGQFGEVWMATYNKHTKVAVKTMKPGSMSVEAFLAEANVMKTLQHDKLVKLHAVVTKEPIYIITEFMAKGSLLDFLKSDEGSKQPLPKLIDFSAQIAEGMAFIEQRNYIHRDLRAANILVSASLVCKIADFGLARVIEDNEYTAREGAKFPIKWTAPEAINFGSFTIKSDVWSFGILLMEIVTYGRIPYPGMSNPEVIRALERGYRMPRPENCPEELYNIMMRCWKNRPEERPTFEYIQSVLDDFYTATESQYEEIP
T1 sequence (P08631 22-256): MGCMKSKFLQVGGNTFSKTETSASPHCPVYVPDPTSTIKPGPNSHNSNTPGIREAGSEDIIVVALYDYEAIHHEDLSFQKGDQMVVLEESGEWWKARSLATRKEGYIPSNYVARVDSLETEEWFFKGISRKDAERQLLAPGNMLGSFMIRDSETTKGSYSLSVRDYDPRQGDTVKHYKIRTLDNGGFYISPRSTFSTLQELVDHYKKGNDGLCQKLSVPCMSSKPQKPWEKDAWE
T3 sequence (P08631 22-256): as above
T6 sequence (P09769 1-257 limits assumed): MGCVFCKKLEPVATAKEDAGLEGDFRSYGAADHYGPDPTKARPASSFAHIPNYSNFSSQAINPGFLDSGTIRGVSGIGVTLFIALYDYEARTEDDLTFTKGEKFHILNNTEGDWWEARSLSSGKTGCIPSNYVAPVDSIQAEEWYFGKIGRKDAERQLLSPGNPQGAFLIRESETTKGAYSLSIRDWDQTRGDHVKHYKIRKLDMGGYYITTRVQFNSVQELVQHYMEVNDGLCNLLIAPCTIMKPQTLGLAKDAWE
Description for Fgr SH32: (§1) SPR analysis was performed on a Reichert 4SPR instrument (Reichert Technologies) using four-channel carboxymethyl dextran hydrogel biosensor chips (Reichert #13206066). Recombinant purified Hck proteins were covalently attached to the chip surface via standard amine coupling chemistry (Grover et al., [2015]). Compounds were prepared in 20 mM Tris-HCl, pH 8.3, 150 mM NaCl, and 1% DMSO and flowed past the immobilized proteins and a reference channel at a flow rate of 50 μL/min for 60 s over a range of concentrations. The binding reaction was followed by dissociation for 120 s, followed by surface regeneration using 10 mM HEPES, pH 7.5, containing 150 mM NaCl, 3 mM EDTA, and 0.05% polysorbate 20, at a flow rate of 50 μL/min for 30 s. All sensorgrams were recorded in triplicate, corrected for buffer effects, and fitted with the 1:1 Langmuir binding model using the TraceDrawer software (Reichert).
Description for Fgr U-SH32-L: as §1
Description for Fgr-YEEI: as §1
Description for Hck SH32-L: as §1
(§2) Interaction was monitored to equilibrium, followed by a dissociation phase. The resulting sensorgrams were best-fit to determine the kinetic rate constants and corresponding KD values, where KD = koff/kon. As positive controls, we also monitored the interaction of peptide ligands for the SH3 and SH2 domains.
Description for Hck U-SH32-L (Hck-U32L): as §1, §2
Description for Hck-YEEI: as §1, §2

What is called IC50 is the midpoint of a concentration-inhibition curve. As usually defined, the Kd is the free concentration of one partner at which half of the binding sites on the other are occupied at equilibrium, for simple one-to-one binding. Take `CC(C)Nc1ccnc(NCc2cccnc2Oc2ccc(F)cc2F)n1` [Compound 1]: at Hck U32L protein, the 50% inhibitory concentration (IC50) is 52.9 µM and 53.2 µM. Moreover, the Kd turned out to be 83 ± 19 µM on Hck SH32-L; 36 ± 4 µM at Hck U-SH32-L (Hck-U32L); 103 ± 4 µM on Hck-YEEI; 104 ± 3 µM at Fgr SH32; 131 ± 6 µM at Fgr U-SH32-L; 141 ± 4 µM at Fgr-YEEI.
`Cc1cnc(NCc2ccccc2-n2ccnc2)nc1N(C)C` [Compound 2]: at Hck U32L protein, the IC50 is 11.3 µM and 16.7 µM. The “Fold increase of KD with SH3-SH2-linker protein lacking the unique domain vs Hck-U32L” value at Hck SH32-L is listed as “about 3 fold”. Also, the “Reduction of extent of binding with SH3-SH2-linker protein lacking the unique domain vs Hck-U32L” value at Hck SH32-L is recorded as “about 50%”. In addition, the Kd worked out at 96 ± 2 µM on Hck SH32-L; 30 µM on Hck U-SH32-L (Hck-U32L); 93 ± 1 µM on Hck-YEEI; 352 ± 1 µM at Fgr SH32; 70 ± 5 µM on Fgr U-SH32-L; 107 ± 1 µM on Fgr-YEEI.
On to `CNc1ccnc(NCCC23CCCN2CCC3)n1` [Compound 3], for which the IC50 on Hck U32L protein was 36.3 µM and 31 µM. Moreover, the Kd on Hck SH32-L stood at 905 ± 18 µM; on Hck U-SH32-L (Hck-U32L) it was 55 ± 5 µM; on Hck-YEEI it was 142 ± 1 µM. In addition, on Fgr SH32, the “KD, Fgr proteins SH32” value is “did not bind”. Besides, on Fgr U-SH32-L, the “KD, Fgr proteins U-SH32-L” value is listed as “did not bind”. On Fgr-YEEI, the “KD, Fgr proteins Fgr-YEEI” value was “did not bind”.
`Cc1cnc(NCc2ccccc2CN2CCCC2=O)nc1N(C)C` [Compound 4]: the IC50 at Hck U32L protein is 36.1 µM and 59.6 µM. Further, the dissociation constant Kd on Hck SH32-L was determined as 338 ± 4 µM; at Hck U-SH32-L (Hck-U32L), 831 µM; at Hck-YEEI, 180 ± 1 µM; on Fgr SH32 it was 69 ± 1 µM; on Fgr U-SH32-L, 102 ± 4 µM; at Fgr-YEEI, 64 ± 2 µM.
